# According to US20200129476A1, “PARP Inhibitor in Combination with a Glucocorticoid and/or Ascorbic Acid and/or a Protein Growth Factor for the Treatment of Impaired Wound Healing” (AKRIBES BIOMEDICAL GMBH, priority 2017, published 2020):
# Entries after “also recorded” stand apart in the source; their conditions may differ.
# Experiments:
# [1] = system: primary human dermal fibroblasts (HDF); assay: Primary human dermal fibroblast (HDF) proliferation assay (2D), with or without wound exudate; format: cell-based; settings: for HDF proliferation, PARP inhibitor alone: talazoparib 1 μM
# Description: (§1) Primary human dermal fibroblasts (HDF) were purchased from CELLnTEC, Bern. They were routinely grown in Dulbecco's modified Eagle's medium (DMEM) containing 10% FCS, 2 mM glutamine, and 100 U/ml penicillin/100 μg/ml streptomycin. Media, antibiotics, and glutamine were bought from Lonza. The cells were used at passage 5-15. Cells were trypsinized and seeded at 5000 cells/well in 200 μl into the inner wells of 96-well plates. The outer wells were loaded with sterile water. The cells were allowed to adhere overnight and then incubated for 72 hours at 37° C. under the following conditions: graded compound concentrations or 20 ng/ml PDGF-BB (Tonbo Biosciences) in the absence or presence of different dilutions of sterile-filtered WE in medium. For control samples, 200p1 medium was added instead of specific stimuli. Alternatively, the cells were seeded into 384-well plates at 2500 cells/well directly together with test compounds or growth factors and WE or medium in a total volume of […].
# (§2) At the end of the 72-hour incubation period, supernatants were removed for the determination of IL-1ß, and the cells were fixed with 4% paraformaldehyde (Morphisto) for 15 minutes at room temperature and washed 3 times with PBS. A control plate was fixed after the overnight adherence of the cells (day 1) to determine the starting cell number.
# Total cellular protein was determined as a measure of cell number by staining the fixed cells with sulforhodamine B (SRB, Sigma). A 0.4% SRB solution in 1% acetic acid was added to the wells for 30 minutes. The wells were then washed with 1 acetic acid until the wash solution remained colorless. After drying, the dye was eluted with 10 mM Tris.HCl, pH8.5, and absorbance was measured either at 550 or 492 nm for lower and higher cell densities, respectively. The average absorbance of the sample representing the day 1 starting cell number (for 96-well plates) was subtracted from the absorbance values of the WE-treated cells.
# All experiments were carried out in triplicate for each sample and concentration, and means±standard deviation (SD) were used for the evaluation of the experiment. Results are expressed as percentage of control values for unstimulated cells.
# Low molecular weight compounds (see list in Table 1) were dissolved in DMSO (Bioreagent for cell culture, Sigma) at 10 mM or 100 mM and diluted at least 1:1000 in medium for cellular assays (final DMSO concentration ≤0.1%).
# Cells were incubated with compounds for 72 hours in proliferation assays and up to 8 days for FDM assay (refreshed after 4 days). When compounds were tested for their effect on WE stimulation, the incubation of cells with compounds was started and ended simultaneously with WE-incubation.
# IL-1ß = IL-1ß secretion by HDF in the presence of wound exudate (ELISA); format: cell-based, human; settings: FIG. 22; WE #43 and #78 used with veliparib
# Description: as §1, §2
# IL-1ß levels were determined with a commercial ELISA kit. The amount of IL-1ß contained in the wound exudate added to the cells was subtracted from the total IL-ß in the supernatants in order to determine the cytokine secreted by the cells.
smiles,measurement,setting,value
"C[C@]1(c2nc3c(C(N)=O)cccc3[nH]2)CCCN1 [veliparib, 2-((2R)-2-methylpyrrolidin-2-yl)-1H-benzimidazole-4-carboxamide]",cell proliferation under wound exudate-induced inhibition,"[1]; FIG. 22, WE #43 and #78 used with veliparib",enhanced cell proliferation
same,"HDF proliferation, PARP inhibitor plus PDGF","[1]; PARP inhibitor dose series + PDGF 20 ng/ml, WE #78 (FIG. 18)",even further enhanced by the addition of PDGF
same,effect on fibroblast proliferation compared across patients,"[1]; WE from patients #49, #43, #78, #27",most prominent in the two patients with diabetes
same,reproducibility of effect on fibroblast proliferation,[1]; WE samples #77 and #78 of one patient (day 1 and day 8),reproducible in different samples of the same patient
same,fibroblast (HDF) proliferation,[1]; presence of WE #43,strongly beneficial effects
same,fibroblast (HDF) proliferation,[1]; presence of WE #78 (diabetic patient),completely reversed inhibition of wound exudate (WE)-induced fibroblast proliferation; also recorded: dose-dependent increase of HDF proliferation
same,fibroblast (HDF) proliferation,"[1]; presence of WE #78 (diabetic patient), listed as Veliparib",completely reversed inhibition of wound exudate (WE)-induced fibroblast proliferation; also recorded: strongly beneficial effects
same,fibroblast (HDF) proliferation,"[1]; presence of wound exudate (WE) of patients, several or unspecified WE",could be confirmed in a number of further wound exudate samples from other patients
same,"HDF proliferation, PARP inhibitor plus PDGF","[1]; veliparib 10 μM, talazoparib 1 μM + PDGF 20 ng/ml, WE #78 (FIG. 17B)",additively or synergistically enhanced by PDGF
same,"HDF proliferation, PARP inhibitor alone","[1]; veliparib 10 μM, WE #78 (FIG. 17B)",induce proliferation
same,"HDF proliferation, PARP inhibitor alone","[1]; veliparib 10 μM, absence of WE (FIG. 17A)",no or an inhibitory effect on fibroblasts on their own
same,"HDF proliferation, PARP inhibitor alone","[1]; veliparib 10 μM, absence of WE (FIG. 17A), listed as Veliparib",no or even an inhibitory effect on fibroblasts on their own
same,IL-1ß secretion induced by wound exudate,IL-1ß,reducing IL-1ß secretion
